Experiments:
[1] = test system: Antigen-specific multifunctional CD4+ T cells; assay: Antigen-specific multifunctional T cells (intracellular cytokine staining, flow cytometry) in spleen cells of immunized mice; format: in vivo, BALB/c mice; conditions: adjuvanted Ovalbumin, CD4+ and CD8+ T cell populations
Protocol: FIG. 8: Antigen-specific multifunctional CD4+ T cells. (A) Groups of 3 BALB/c mice were immunized intramuscularly with PBS (control) or with three doses (14 days apart) of Ovalbumin (30 μg), alone or adjuvanted with c-di-AMP or aßGalCerMPEG or IPB 2033-2044 (15 μg). At 14 days after the second immunization, spleen cells were harvested, restimulated with Ovalbumin, intracellularly stained for double positive Th cytokines (IFN-γ, IL-2, TNF-α, IL-4 and IL-17), and analyzed by flow cytometry. […] At 14 days after the second immunization, spleen cells were harvested, restimulated with Ovalbumin, intracellularly stained for triple positive Th cytokines (IFN-γ, IL-2, TNF-α, IL-4 and IL-17), and analyzed by flow cytometry.
In order to characterize more accurately the cellular immune response, the production of intracellular cytokines was measured in CD4+ and CD8+ T cells. […]
Therefore, mice were immunized to assess the in vivo performance of CDA in an active vaccination setting. To assess vaccination effectivity, the frequencies of cytokine producers among the CD4+ and CD8+ T cell populations were evaluated by intracellular cytokine staining and flow cytometry. […] Thus, the frequency of T cells producing single cytokines or combinations (positive events/million) was analyzed by flow cytometry.

[2] = Ebensen et al J. Immunol. 179 (2007) 2065; cited from earlier work

## Nc1ncnc2c1ncn2[C@@H]1O[C@@H]2COP(=O)(O)O[C@H]3[C@@H](O)[C@H](n4cnc5c(N)ncnc54)O[C@@H]3COP(=O)(O)O[C@H]2[C@H]1O [CDA, c-di-AMP]
[1]
  frequency of triple, double and single cytokine producers among T cells: increased the frequency of triple, double and single cytokine producers

## CCCCCCCCCCCCCCCCCCCCCCCCCC(=O)N[C@@H](CO[C@H]1O[C@H](CO)[C@H](O)[C@H](O)[C@H]1O)[C@H](O)[C@H](O)CCCCCCCCCCCCCC [KRN7000]
[2]
  solubility: low solubility

Reference: US12564631B2, “Phytosphingosine derivatives as adjuvants in immune stimulation” (Helmholtz-Zentrum für Infektionsforschung GmbH, priority 2020, dated 2026)
